# Columns and labels:
# Adenosine receptor A1 [1] = molecular target: T1, Adenosine receptor A1 (Homo sapiens, UniProt P30542)
# T1 sequence (P30542 whole entry): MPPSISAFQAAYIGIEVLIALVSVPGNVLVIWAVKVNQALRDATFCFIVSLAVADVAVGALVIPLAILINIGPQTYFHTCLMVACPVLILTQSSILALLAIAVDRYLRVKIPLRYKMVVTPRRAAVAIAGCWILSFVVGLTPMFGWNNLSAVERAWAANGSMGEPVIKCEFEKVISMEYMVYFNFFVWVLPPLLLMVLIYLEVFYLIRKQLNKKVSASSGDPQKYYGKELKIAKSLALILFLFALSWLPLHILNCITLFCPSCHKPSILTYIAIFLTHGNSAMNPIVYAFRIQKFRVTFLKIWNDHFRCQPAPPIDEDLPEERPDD
# Homo sapiens = organism: Homo sapiens; test: Selectivity ratio of Ki for human recombinant adenosine A1 receptor to Ki for human recombinant adenosine receptor A2a
# Rattus norvegicus [2] = test: Induction of hypolocomotion in po dosed rat assessed as reduction in motor deficts; assay type: functional
# Rattus norvegicus [3] = test: Anticataleptic activity in po dosed rat assessed as inhibition of haloperidol-induced catalepsy; assay type: functional
# Mus musculus [4] = test: Anticataleptic activity in po dosed mouse assessed as inhibition of haloperidol-induced catalepsy; assay type: functional
# Rattus norvegicus [5] = test: Anticataleptic activity in rat assessed as inhibition at 1 mg/kg, po after 4 hrs; assay type: functional; conditions: Rattus norvegicus, po, 4 h
# Rattus norvegicus [6] = test: Anticataleptic activity in rat assessed as inhibition at 1 mg/kg, po after 1 hr; assay type: functional; conditions: Rattus norvegicus, po, 1 h
# [7] = Plasma clearance in rat; assay type: ADME, organism-based
# [8] = Half life in rat; assay type: ADME, organism-based; conditions: in vivo
# Rattus norvegicus [9] = test: Anticataleptic activity in rat assessed as inhibition at 3 mg/kg, po after 1 hr; assay type: functional
# [10] = Solubility of the compound in water pH 7.4; assay type: physicochemical
# Rattus norvegicus [11] = organism: Rattus norvegicus; test: Selectivity ratio of Ki for rat striatal adenosine A1 receptor to Ki for rat recombinant adenosine receptor A2a
# Mus musculus [12] = test: Anticataleptic activity in mouse assessed as inhibition of CGS21680-induced catalepsy at 10 mg/kg, po; assay type: functional
# Rattus norvegicus [13] = test: Anticataleptic activity in rat assessed as inhibition at 3 mg/kg, po after 4 hrs; assay type: functional
# [14] = AUC in rat at 3 mg/kg, po; assay type: ADME, organism-based; design: dose 3 mg/kg, route oral; conditions: plasma
# Adenosine receptor A3 [15] = molecular target: T2, Adenosine receptor A3 (Homo sapiens, UniProt P0DMS8)
# T2 sequence (P0DMS8 whole entry): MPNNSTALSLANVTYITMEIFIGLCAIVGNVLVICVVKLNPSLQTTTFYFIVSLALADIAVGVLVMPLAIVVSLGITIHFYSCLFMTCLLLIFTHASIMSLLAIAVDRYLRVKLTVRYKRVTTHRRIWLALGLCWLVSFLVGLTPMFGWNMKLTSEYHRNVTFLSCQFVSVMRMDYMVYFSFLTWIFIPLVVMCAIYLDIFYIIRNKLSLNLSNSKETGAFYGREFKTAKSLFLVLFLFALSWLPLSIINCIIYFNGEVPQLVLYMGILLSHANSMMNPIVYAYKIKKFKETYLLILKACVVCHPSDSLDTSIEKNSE
# Adenosine receptor A2a [16] = molecular target: T3, Adenosine receptor A2a (Homo sapiens, UniProt P29274)
# Adenosine receptor A2b [17] = molecular target: T4, Adenosine receptor A2b (Homo sapiens, UniProt P29275)
# T4 sequence (P29275 whole entry): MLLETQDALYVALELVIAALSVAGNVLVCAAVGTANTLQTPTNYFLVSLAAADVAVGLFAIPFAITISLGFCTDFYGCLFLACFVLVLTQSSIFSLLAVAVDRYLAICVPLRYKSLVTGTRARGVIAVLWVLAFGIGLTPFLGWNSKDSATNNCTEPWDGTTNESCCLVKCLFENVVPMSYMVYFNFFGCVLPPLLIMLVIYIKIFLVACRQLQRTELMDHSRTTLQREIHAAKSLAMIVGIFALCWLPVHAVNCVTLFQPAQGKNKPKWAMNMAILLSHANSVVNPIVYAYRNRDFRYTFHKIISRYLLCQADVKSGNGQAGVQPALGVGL
# Adenosine receptor A1 [18] = molecular target: T1, Adenosine receptor A1; remark: listed apart in the source
# Adenosine receptor A3 [19] = molecular target: T2, Adenosine receptor A3; test: Binding affinity to human recombinant adenosine A3 receptor
# Adenosine receptor A2b [20] = molecular target: T4, Adenosine receptor A2b; remark: listed apart in the source
# [21] = Oral bioavailability in rat; assay type: ADME, organism-based; conditions: in vivo
# Adenosine receptor A2a [22] = molecular target: T3, Adenosine receptor A2a; remark: listed apart in the source
# Rattus norvegicus [23] = organism: Rattus norvegicus; test: Anticataleptic activity in rat assessed as minimum efficacious dose; assay type: functional; conditions: read-out: MED
# Adenosine receptor A2a [24] = molecular target: Adenosine receptor A2a (Rattus norvegicus, UniProt P30543)
# [25] = molecular target: Adenosine receptor A2a (Rattus norvegicus) (UniProt P30543); test: Receptor occupancy at adenosine receptor A2a in rat striatum; assay type: tissue-based
# [26] = molecular target: T5, Adenosine receptor A2b (Homo sapiens) (UniProt P29275); test: Inhibition of human recombinant adenosine receptor A2b at 1 uM
# T5 sequence (whole entry): T4 sequence (P29275 whole entry)
# [27] = molecular target: T6, Adenosine receptor A1 (Homo sapiens) (UniProt P30542); test: Inhibition of human recombinant adenosine A1 receptor at 10 uM
# T6 sequence (whole entry): T1 sequence (P30542 whole entry)
# Adenosine receptor A2a [28] = molecular target: T3, Adenosine receptor A2a; test: Inhibition of human recombinant adenosine receptor A2a at 100 nM
# [29] = molecular target: T6, Adenosine receptor A1 (Homo sapiens); test: Inhibition of human recombinant adenosine A1 receptor at 1 uM
# Adenosine receptor A2a [30] = molecular target: T3, Adenosine receptor A2a; test: Inhibition of human recombinant adenosine receptor A2a at 10 nM
# [31] = molecular target: T5, Adenosine receptor A2b (Homo sapiens); test: Inhibition of human recombinant adenosine receptor A2b at 10 uM
# T3 sequence (P29274 whole entry): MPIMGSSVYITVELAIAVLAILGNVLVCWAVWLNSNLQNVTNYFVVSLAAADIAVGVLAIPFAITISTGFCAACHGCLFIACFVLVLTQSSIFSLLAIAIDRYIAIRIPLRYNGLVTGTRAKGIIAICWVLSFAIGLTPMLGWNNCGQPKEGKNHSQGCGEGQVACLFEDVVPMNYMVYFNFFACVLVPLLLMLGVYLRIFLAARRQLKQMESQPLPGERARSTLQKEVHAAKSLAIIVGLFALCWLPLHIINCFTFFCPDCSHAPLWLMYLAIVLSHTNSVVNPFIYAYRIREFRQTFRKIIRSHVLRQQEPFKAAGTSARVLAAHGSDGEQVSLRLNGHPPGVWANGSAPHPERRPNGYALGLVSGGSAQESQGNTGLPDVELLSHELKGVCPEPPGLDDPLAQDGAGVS
# Chain of Adenosine receptor A2a (Rattus norvegicus, UniProt P30543) (P30543 whole entry): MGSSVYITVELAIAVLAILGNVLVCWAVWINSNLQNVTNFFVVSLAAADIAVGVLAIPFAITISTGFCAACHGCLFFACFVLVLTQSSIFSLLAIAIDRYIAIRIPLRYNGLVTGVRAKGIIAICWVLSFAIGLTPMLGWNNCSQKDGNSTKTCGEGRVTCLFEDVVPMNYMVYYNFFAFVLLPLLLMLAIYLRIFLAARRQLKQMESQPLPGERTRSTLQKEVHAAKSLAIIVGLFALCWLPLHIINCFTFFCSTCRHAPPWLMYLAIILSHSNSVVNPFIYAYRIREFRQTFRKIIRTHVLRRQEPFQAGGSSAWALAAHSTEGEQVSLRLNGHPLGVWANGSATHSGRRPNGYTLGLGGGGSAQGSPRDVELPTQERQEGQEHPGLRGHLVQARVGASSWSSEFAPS
# Chain of Adenosine receptor A2a (Rattus norvegicus) (P30543 whole entry): as above
compound,measurement,setting,value
CC(O)CCc1nc(N)c2nc(-n3nccn3)n(C)c2n1 (configuration not stated),Ki,Adenosine receptor A1 [1],24 nM
same,Ratio Ki,Homo sapiens,3
CCNC(=O)[C@H]1O[C@@H](n2cnc3c(N)nc(NCCc4ccc(CCC(=O)NCCN)cc4)nc32)[C@H](O)[C@@H]1O,ID90,Rattus norvegicus [2],3.4 mg/kg
same,ED50,"Rattus norvegicus [2]; Rattus norvegicus, po, read-out: ID50 (the source's name)",0.5 mg/kg
Nc1nc(-c2ccccc2)c2c(n1)-c1cc(CN3CCCC3)ccc1C2=O,ED50,Rattus norvegicus [3],0.5 mg/kg
Nc1nc(-c2ccccc2)c2c(n1)-c1cc(NCCN3CCOCC3)ccc1C2=O,ED50,Mus musculus [4],< 0.1 mg/kg
COCCOc1ccc(N2CCN(CCn3cnc4c3nc(N)n3nc(-c5ccco5)nc43)CC2)cc1,inhibition in vivo at 1 mg/kg,Rattus norvegicus [5],50%
same,Ki,Adenosine receptor A1 [1],602 nM
same,inhibition in vivo at 1 mg/kg,Rattus norvegicus [6],55%
same,Ratio Ki,Homo sapiens,669
Nc1nc2c(cnn2CCN2CCOCC2)c2nn(Cc3cccc(Cl)c3)c(=O)n12,Ki,Adenosine receptor A1 [1],1400 nM
same,Ratio Ki,Homo sapiens,99
Cc1cnc2c(c1)CN(CCn1ncc3c1nc(N)n1nc(-c4ccco4)nc31)CC2,Ki,Adenosine receptor A1 [1],358 nM
same,clearance,[7],4.7 mL/min/kg
same,half-life,[8],11.3 h
same,inhibition in vivo at 1 mg/kg,Rattus norvegicus [6],65%
same,inhibition in vivo at 3 mg/kg,Rattus norvegicus [9],80%
same,solubility,[10],100 µM
CC(O)(C#Cc1cn2nc(-c3ccco3)nc2c(N)n1)c1ccccc1 (configuration not stated),Ratio Ki,Rattus norvegicus [11],3.4
COC(=O)Nc1cc2c(-c3ccccc3)ccc(OC)c2o1,inhibition in vivo at 10 mg/kg,Mus musculus [12],86%
Cc1ccc2cc(CCn3ncc4c3nc(N)n3nc(-c5ccco5)nc43)ccc2n1,Ki,Adenosine receptor A1 [1],406 nM
same,inhibition in vivo at 3 mg/kg,Rattus norvegicus [13],38%
same,AUC,[14],1400 ng·h/mL
same,inhibition in vivo at 3 mg/kg,Rattus norvegicus [9],86%
same,Ratio Ki,Homo sapiens,169
CCn1c(=O)c2c(nc(/C=C/c3ccc(OC)c(OC)c3)n2C)n(CC)c1=O [ISTRADEFYLLINE],Ki,Adenosine receptor A3 [15],> 3000 nM
COc1ccc(C2CCOCC2)c2oc(NC(=O)c3ccnc(N4CCOCC4)c3)nc12,Ki,Adenosine receptor A2a [16],25 nM
same,Ki,Adenosine receptor A1 [1],8780 nM
same,Ratio Ki,Homo sapiens,351
Nc1nc(-c2ccco2)c2ncn(C(=O)NCc3ccco3)c2n1,Ki,Adenosine receptor A3 [15],1930 nM
same,Ki,Adenosine receptor A2a [16],1.7 nM
same,Ki,Adenosine receptor A2b [17],141 nM
CC1CN(c2nnc(N)nc2-c2ccccc2)CC(C)O1 (configuration not stated),Ki,Adenosine receptor A1 [1],10000 nM
same,Ratio Ki,Homo sapiens,617
Cn1c(=O)c2c(ncn2C)n(C)c1=O [CAFFEINE],inhibition in vivo at 3 mg/kg,Rattus norvegicus [13],14%
same,inhibition in vivo at 3 mg/kg,Rattus norvegicus [9],35%
CCNC(=O)[C@H]1O[C@@H](n2cnc3c(N)nc(C#CC[C@H]4CC[C@H](C(=O)OC)CC4)nc32)[C@H](O)[C@@H]1O [APADENOSON],Ki,Adenosine receptor A1 [18],77 nM
same,Ki,Adenosine receptor A3 [19],45 nM
COc1ccc(N2CCOCC2)c2cc(C(=O)Nc3ccncc3)oc12,inhibition in vivo at 10 mg/kg,Mus musculus [12],76%
Nc1nc(OCCc2ccc(Cl)cc2)nc2c1ncn2[C@@H]1O[C@H](CO)[C@@H](O)[C@H]1O [SONEDENOSON],EC50,Adenosine receptor A2b [20],10000 nM
same,Ki,Adenosine receptor A1 [18],10000 nM
COCc1cccc(CNC(=O)c2cc(-c3ccco3)nc(N)n2)n1,bioavailability,[21],90%
same,Ratio Ki,Homo sapiens,25
same,solubility,[10],> 450 µM
"O[C@H](c1cc(C(F)(F)F)nc2c(C(F)(F)F)cccc12)[C@@H]1CCCCN1 [(R,S)-MEFLOQUINE]",Ki,Adenosine receptor A2b [17],7070 nM
Nc1nc(NCCc2ccc(O)cc2)nc2nc(-c3ccco3)nn12 [ZM-241385],Ki,Adenosine receptor A3 [15],> 10000 nM
Nc1nc(-c2ccco2)c2c(n1)-c1ccccc1C2=O,ED50,Mus musculus [4],5 mg/kg
CN(C)CCn1ncc2c1nc(N)n1c(=O)n(Cc3cccc(Cl)c3)nc21,Ki,Adenosine receptor A1 [1],1400 nM
same,Ratio Ki,Homo sapiens,269
Nc1nc(Cl)nc2c1ncn2[C@@H]1O[C@H](CO)[C@@H](O)[C@H]1O,Ki,Adenosine receptor A2a [22],180 nM
same,Ki,Adenosine receptor A1 [18],1.39 nM
same,Ki,Adenosine receptor A3 [19],19 nM
Cc1cc(Cn2nnc3c(-c4ccco4)nc(N)nc32)ccc1N [VIPADENANT],minimal effective dose,Rattus norvegicus [23],0.1 mg/kg
CC(C)c1nc(-c2nccs2)c2sccc2n1,bioavailability,[21],5.8%
same,Ratio Ki,Homo sapiens,148
Nc1nc2ccc(Cl)cc2c2nc(-c3ccco3)nn12 [CGS-15943],Ki,Adenosine receptor A2a [24],0.4 nM
CC(=O)CCc1nc(N)c2nc(-n3nccn3)n(C)c2n1,Ki,Adenosine receptor A1 [1],192 nM
same,Ratio Ki,Homo sapiens,16
Nc1nnc(-c2ccccc2)c(-c2ccccc2)n1,Ki,Adenosine receptor A1 [1],270 nM
Cc1cc(C)n(-c2cc(NC(=O)CN3CCN(C)CC3)nc(-c3nccs3)n2)n1,Ratio Ki,Homo sapiens,222
Cc1cc(C)n(-c2cc(NC(=O)COc3cccc(CN(C)C)c3)nc(-c3ccc(C)o3)n2)n1,Ki,Adenosine receptor A1 [1],40 nM
same,ED50,Rattus norvegicus [3],10 mg/kg
COc1cnc(N2CCOCC2)c2sc(NC(=O)c3ccc(F)cc3)nc12,Ki,Adenosine receptor A2a [16],5 nM
same,Ki,Adenosine receptor A1 [1],2100 nM
same,Ratio Ki,Homo sapiens,420
COCCOc1ccc(N2CCN(CCn3cnc4c3nc(N)n3nc(-c5ccccn5)nc43)CC2)cc1,Ki,Adenosine receptor A1 [1],1360 nM
same,Ratio Ki,Homo sapiens,108
CC(=O)Nc1cc(-n2cccn2)nc(-c2ccco2)n1,Ki,Adenosine receptor A1 [1],10.2 nM
same,Ratio Ki,Homo sapiens,17
CNC(=O)c1cnn(-c2nc(N)c3ncn([C@@H]4O[C@H](CO)[C@@H](O)[C@H]4O)c3n2)c1 [REGADENOSON ANHYDROUS],EC50,Adenosine receptor A2b [20],10000 nM
same,Ki,Adenosine receptor A1 [18],3770 nM
same,Ki,Adenosine receptor A3 [19],10000 nM
Nc1nc(-c2ccco2)c2ncn(C(=O)NCc3ccccc3)c2n1,Ki,Adenosine receptor A3 [15],1470 nM
same,Ki,Adenosine receptor A2b [17],112 nM
CCCCc1nc(N)c2nc(-n3nccn3)n(C)c2n1 [ST1535],Ki,Adenosine receptor A3 [15],> 10000 nM
same,Ki,Adenosine receptor A1 [1],79.2 nM
same,Ratio Ki,Homo sapiens,12
CC1(C)CCCN(c2nnc(N)nc2-c2ccccc2)C1,Ki,Adenosine receptor A1 [1],10000 nM
same,Ratio Ki,Homo sapiens,245
CC(C)n1cc(-c2ncc(N)nc2-c2ccc(F)cc2)ccc1=O,Ki,Adenosine receptor A3 [15],> 557 nM
same,Activity,[25],85%
same,minimal effective dose,Rattus norvegicus [23],0.1 mg/kg
COc1ccc(-c2ccccc2)c2cc(C(=O)N3CCOCC3)oc12,inhibition,[26],81%
same,inhibition,[27],82%
same,inhibition,Adenosine receptor A2a [28],81%
same,inhibition,[29],37%
same,inhibition,Adenosine receptor A2a [30],39%
same,inhibition in vivo at 10 mg/kg,Mus musculus [12],78%
same,inhibition,[31],98%
Nc1nc(-c2ccccc2)c2c(n1)-c1cc(OCCN3CCOCC3)ccc1C2=O,ED50,Mus musculus [4],0.3 mg/kg
CN(CCN1CCN(c2ccc(F)cc2F)CC1)c1cc2nc(-c3cccc(C#N)c3)nn2c(N)n1,Ki,Adenosine receptor A1 [1],1120 nM
same,Ratio Ki,Homo sapiens,620

# Reference: ChEMBL document CHEMBL3259781 (J Med Chem, 2014)
